How the values were obtained:
[1] = system: adalimumab-producing CHO cell line; test: Example 1 oligosaccharide analysis, batch shake flasks, CDM GIA-1; format: cell-based, Chinese Hamster
Method: The studies were performed in either a batch process in shake flasks or a fed-batch process in 3 L bioreactors.
Growth and production media for the adalimumab-producing CHO cell line were prepared using a proprietary Life Technologies Gibco chemically defined media, GIA-1. […] All media were filtered through Corning 0.5 L or 1 L filter systems 0.22 μm Poly(Ether Sulfone) (PES) and stored at 4° C. until use.
The cell line utilized for both studies was generated from the adalimumab-producing CHO cell utilized in Example 3 by adapting it to chemically defined GIA-1 media for 7 (2 to 3 day each) passages in a combination of 250 mL and 500 mL Corning vented non-baffled shake flasks before freezing.
Upon thaw, for the batch shake flask study, cells were expanded for 3 to 5 (2 to 3 day each) passages in a combination of 250 mL and 500 mL Corning vented non-baffled shake flasks. Production cultures were initiated in duplicate 500 mL Corning vented non-baffled shake flasks (200 mL working volume) at an initial viable cell density (VCD) of approximately 0.5×10^6 cells/mL. Cultures were maintained on orbital shakers at 110 revolutions per minute (RPM) in a dry incubator at 35° C. and 5% CO2. The shake flask study was run in an extended batch mode by feeding a glucose solution (1.25% (v/v) of 40% solution) when the media glucose concentration fell below 3 g/L.
(§1) For all studies with CHO cell lines described throughout this invention, samples were collected daily and measured for cell density and viability using a Cedex cell counter. Retention samples for titer analysis via Poros A method were collected by centrifugation at 12,000 RPM for 5 min when the culture viability began declining. The cultures were harvested by collecting 125 mL aliquots and centrifuging at 3,000 RPM for 30 min when culture viability was near or below 50%. All supernatants were stored at −80° C. until analysis.
For all studies, the harvest samples were Protein A purified and prepared for the oligosaccharide assay using the following procedures. As a first step in the process of establishing the identity and quantifying the oligosaccharides, they are released from the protein by enzymatic digestion with N-glycanase. Once the glycans are released, the free reducing end of each glycan is labeled by reductive amination with a fluorescent tag, 2-aminobenzamide (2-AB). The resulting labeled glycans are separated by normal-phase HPLC (NP-HPLC) in acetonitrile: 50 mM ammonium formate, pH 4.4, and detected by a fluorescence detector. Quantitation is based on the relative area percent of detected sugars. Throughout this invention, the relative area percentages of the agalactosyl fucosylated biantennary oligosaccharides, denoted as NGA2F+NGA2F-GlcNAc sum, and the galactose-containing fucosylated biantennary oligosaccharides NA1F+NA2F sum are reported and discussed.
Galactose was supplemented at the following levels in production media: 0, 10, 20, 40, and 100 mM. […] Culture growth, productivity, and product quality data for control cultures is the average of the 3 experiments.

[2] = system: adalimumab-producing NSO cell line; test: Example 6 culture growth & productivity; format: cell-based; conditions: for culture growth and viability profiles: galactose 0 to 5 mM and/or manganese chloride up to 0.5 μM
Method: Growth and production media for the adalimumab-producing NSO cell line were prepared using a proprietary Life Technologies Gibco chemically defined media, PFBM-3 basal medium plus PFFM-4 feed medium.
Upon thaw, cells were expanded for 3 to 5 (2 days each) passages in a combination of 250 mL, 500 mL, 1 L, 2 L and 3 L Corning vented non-baffled shake flasks. Production cultures were initiated in single 1 L Corning vented non-baffled shake flasks (240 mL initial working volume) at an initial VCD of approximately 2.5×10^5 cells/mL. Cultures were maintained on orbital shakers at 100 RPM in a dry incubator at 37° C. and 5% CO2. The shake flask study was run in a fed-batch mode and the culture was fed PFFM-4 as follows: 24 mL—day 2, 28.8 mL—day 4, 28.8 mL—day 6, and 28.8 mL—day 8.
Samples were collected every 2 days and measured for cell density and viability using a Cedex cell counter. Retention samples for titer analysis via Poros A method were collected daily beginning on Day 8 by centrifugation at 2,000 g for 10 min and then filtered through 0.2 μm PVDF syringe filter. The cultures were harvested on production day 10. The entire culture was collected, chilled on ice to approximately 0° C. for 1.5 hours, the cells and debris flocculated at pH 5.0 by the addition of 1M citric acid and held for 15 minutes, and centrifuged at 4000x g for 15 min at 5° C. The supernatant was passed through 0.20 μm Millipore Stericup PES filters, and, immediately post filtration, the acidified clarified cell-free harvest was neutralized with 2M Tris to pH 7.1±0.2. The cell free harvest was transferred to PETG bottles and stored at −80° C. until analysis.
Galactose was supplemented at the following levels in both production and feed media: 0, 1, 4, 5, and 10 mM.

[3] = system: adalimumab-producing CHO cell line #2; test: Example 4 culture growth & productivity; format: cell-based, Chinese Hamster; conditions: galactose 0 to 20 mM and/or manganese chloride 0 to 40 μM
Method: as §1
Growth and production media for the adalimumab-producing CHO cell line #2 were prepared using a proprietary Life Technologies Gibco chemically defined media, GIA-1. […] All media were filtered through Corning 0.5 L or 1 L filter systems (0.22 μm PES) and stored at 4° C. until use.
Upon thaw, cells were expanded for 5 to 8 (2 to 3 day each) passages in a combination of 250 mL, 500 mL, and 1000 mL Corning vented non-baffled shake flasks. Production cultures were initiated in duplicate 500 mL Corning vented non-baffled shake flasks (200 mL working volume) at an initial VCD of approximately 0.5×10^6 cells/mL. Cultures were maintained on orbital shakers at 180 RPM in a dry incubator at 35° C. and 5% CO2. A glucose solution (1.25% (v/v) of 40% solution) was fed when the media glucose concentration fell below 3 g/L. […]

[4] = system: adalimumab-producing CHO cell line; test: Example 1 culture growth & productivity, batch shake flasks; format: cell-based, Chinese Hamster; conditions: galactose 0 to 100 mM and/or manganese chloride up to 80 μM
Method: All supernatants were stored at −80° C. until analysis. […] Culture growth, productivity, and product quality data for control cultures is the average of the 3 experiments.

[5] = 100 μM manganese chloride alone

Q: Which results are given for `O=C[C@H](O)[C@@H](O)[C@@H](O)[C@H](O)CO` [galactose, D(+)Galactose]?
A: decrease in the NGA2F+NGA2F-GlcNac sum ([1]; 40 mM galactose alone): 6%; maximum change in the NA1F+NA2F oligosaccharides ([1]; 100 mM galactose alone): 7%; maximum change in the NGA2F+NGA2F-GlcNac ([1]; 100 mM galactose alone): 7%; culture growth and viability profiles [2]: comparable to the control condition; effect on culture growth and productivity ([2]; galactose 10 mM): detrimental effect on culture growth and productivity; harvest titer lower than control condition ([2]; galactose 10 mM): 60%; culture growth, viability profiles, and harvest titer [3]: comparable to the control cultures; cell growth and viability profiles [4]: comparable to control cultures

Q: Which results are given for “Manganese (II) Chloride [manganese chloride]”?
A: decrease in the NGA2F+NGA2F-GlcNac sum ([1]; 40 μM manganese chloride alone): 6%; maximum change in the NA1F+NA2F oligosaccharides [1, 5]: 8%; maximum change in the NGA2F+NGA2F-GlcNac [1, 5]: 9%; culture growth and viability profiles [2]: comparable to the control condition; culture growth, viability profiles, and harvest titer [3]: comparable to the control cultures; cell growth and viability profiles [4]: comparable to control cultures

— patent US9505834B2, “Methods for controlling the galactosylation profile of recombinantly-expressed proteins” (AbbVie Inc., priority 2011, dated 2016)
